Read-outs that look alike come from different tables or passages of the source.
Legend:
AKT1 = molecular target: T1, AKT1 (Homo sapiens, UniProt P31749); assay: HotSpot in vitro kinase assay, AKT1; format: biochemical
T1 construct: purchased Reaction Biology Corporation

AKT3 = molecular target: T2, AKT3 (Homo sapiens, UniProt Q9Y243); assay: HotSpot in vitro kinase assay, AKT3; format: biochemical
T2 construct: purchased Reaction Biology Corporation

HSV-2(G) = assay: Synchronized HSV infection (entry kinetics) plaque assay; conditions: 10 μM, HaCat, 0.5, 1, 1.5 or 2 hours post-temperature shift
panel of 393 kinases [1] = molecular target: T3, panel of 393 kinases (Homo sapiens, UniProt Q9BQI3); assay: biochemical; conditions: CIMSS 10 μM, 10 μM ATP
T3 construct: purchased Reaction Biology Corporation

panel of 393 kinases [2] = molecular target: T4, panel of 393 kinases (Homo sapiens, UniProt P19525); assay: biochemical; conditions: CIMSS 10 μM, 10 μM ATP
T4 construct: purchased Reaction Biology Corporation

panel of 393 kinases [3] = molecular target: T5, panel of 393 kinases (Homo sapiens, UniProt O00418); assay: biochemical; conditions: CIMSS 10 μM, 10 μM ATP
T5 construct: purchased Reaction Biology Corporation

panel of 393 kinases [4] = molecular target: T6, panel of 393 kinases (Homo sapiens, UniProt Q13131); assay: biochemical; conditions: CIMSS 10 μM, 10 μM ATP
T6 construct: purchased Reaction Biology Corporation

panel of 393 kinases [5] = molecular target: T7, panel of 393 kinases (Homo sapiens, UniProt Q15119); assay: biochemical; conditions: CIMSS 10 μM, 10 μM ATP
T7 construct: purchased Reaction Biology Corporation

panel of 393 kinases [6] = molecular target: T8, panel of 393 kinases (Homo sapiens, UniProt P42345); assay: biochemical; conditions: CIMSS 10 μM, 10 μM ATP
T8 construct: purchased Reaction Biology Corporation

panel of 393 kinases [7] = molecular target: T9, panel of 393 kinases (Homo sapiens, UniProt P78527); assay: biochemical; conditions: CIMSS 10 μM, 10 μM ATP
T9 construct: purchased Reaction Biology Corporation

panel of 393 kinases [8] = molecular target: T10, panel of 393 kinases (Homo sapiens, UniProt Q96QT4); assay: biochemical; conditions: CIMSS 10 μM, 10 μM ATP
T10 construct: purchased Reaction Biology Corporation

panel of 393 kinases [9] = molecular target: T11, panel of 393 kinases (Homo sapiens, UniProt P54646); assay: biochemical; conditions: CIMSS 10 μM, 10 μM ATP
T11 construct: purchased Reaction Biology Corporation

panel of 393 kinases [10] = molecular target: T12, panel of 393 kinases (Homo sapiens, UniProt Q15120); assay: biochemical; conditions: CIMSS 10 μM, 10 μM ATP
T12 construct: purchased Reaction Biology Corporation

panel of 393 kinases [11] = molecular target: T13, panel of 393 kinases (Homo sapiens, UniProt Q9NZJ5); assay: biochemical; conditions: CIMSS 10 μM, 10 μM ATP
T13 construct: purchased Reaction Biology Corporation

panel of 393 kinases [12] = molecular target: T14, panel of 393 kinases (Homo sapiens, UniProt Q16654); assay: biochemical; conditions: CIMSS 10 μM, 10 μM ATP
T14 construct: purchased Reaction Biology Corporation

panel of 393 kinases [13] = molecular target: T15, panel of 393 kinases (Homo sapiens, UniProt Q9P2K8); assay: biochemical; conditions: CIMSS 10 μM, 10 μM ATP
T15 construct: purchased Reaction Biology Corporation

panel of 393 kinases [14] = molecular target: T16, panel of 393 kinases (Homo sapiens, UniProt Q15118); assay: biochemical; conditions: CIMSS 10 μM, 10 μM ATP
T16 construct: purchased Reaction Biology Corporation

VSV-EBOV-GP = format: cell-based

T1 sequence (P31749 whole entry): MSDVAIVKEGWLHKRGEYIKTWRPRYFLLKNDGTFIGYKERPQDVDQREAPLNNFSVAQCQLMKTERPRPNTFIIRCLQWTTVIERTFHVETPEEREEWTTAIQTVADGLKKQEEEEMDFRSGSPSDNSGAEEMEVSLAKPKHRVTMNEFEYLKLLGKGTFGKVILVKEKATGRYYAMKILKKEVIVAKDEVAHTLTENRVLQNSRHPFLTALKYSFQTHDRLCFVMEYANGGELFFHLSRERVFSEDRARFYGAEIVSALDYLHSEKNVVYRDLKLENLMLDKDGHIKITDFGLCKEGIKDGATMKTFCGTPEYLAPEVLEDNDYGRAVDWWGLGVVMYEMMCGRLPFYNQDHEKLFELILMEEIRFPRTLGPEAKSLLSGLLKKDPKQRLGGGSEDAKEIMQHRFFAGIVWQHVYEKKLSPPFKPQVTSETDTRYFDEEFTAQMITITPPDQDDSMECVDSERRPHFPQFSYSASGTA
T11 sequence (P54646 whole entry): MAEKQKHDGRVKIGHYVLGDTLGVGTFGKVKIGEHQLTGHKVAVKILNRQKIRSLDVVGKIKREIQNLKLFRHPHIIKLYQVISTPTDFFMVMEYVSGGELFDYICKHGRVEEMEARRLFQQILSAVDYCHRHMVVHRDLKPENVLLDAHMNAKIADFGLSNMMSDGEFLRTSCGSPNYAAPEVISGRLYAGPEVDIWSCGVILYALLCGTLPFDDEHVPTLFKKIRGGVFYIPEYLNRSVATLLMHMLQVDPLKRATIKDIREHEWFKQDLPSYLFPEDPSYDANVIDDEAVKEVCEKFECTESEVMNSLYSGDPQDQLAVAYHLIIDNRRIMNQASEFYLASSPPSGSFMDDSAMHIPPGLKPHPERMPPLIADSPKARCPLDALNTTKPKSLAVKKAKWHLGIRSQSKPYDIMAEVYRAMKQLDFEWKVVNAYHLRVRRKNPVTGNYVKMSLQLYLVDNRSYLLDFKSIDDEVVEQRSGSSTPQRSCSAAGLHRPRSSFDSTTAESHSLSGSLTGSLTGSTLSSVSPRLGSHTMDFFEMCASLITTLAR
T6 sequence (Q13131 whole entry): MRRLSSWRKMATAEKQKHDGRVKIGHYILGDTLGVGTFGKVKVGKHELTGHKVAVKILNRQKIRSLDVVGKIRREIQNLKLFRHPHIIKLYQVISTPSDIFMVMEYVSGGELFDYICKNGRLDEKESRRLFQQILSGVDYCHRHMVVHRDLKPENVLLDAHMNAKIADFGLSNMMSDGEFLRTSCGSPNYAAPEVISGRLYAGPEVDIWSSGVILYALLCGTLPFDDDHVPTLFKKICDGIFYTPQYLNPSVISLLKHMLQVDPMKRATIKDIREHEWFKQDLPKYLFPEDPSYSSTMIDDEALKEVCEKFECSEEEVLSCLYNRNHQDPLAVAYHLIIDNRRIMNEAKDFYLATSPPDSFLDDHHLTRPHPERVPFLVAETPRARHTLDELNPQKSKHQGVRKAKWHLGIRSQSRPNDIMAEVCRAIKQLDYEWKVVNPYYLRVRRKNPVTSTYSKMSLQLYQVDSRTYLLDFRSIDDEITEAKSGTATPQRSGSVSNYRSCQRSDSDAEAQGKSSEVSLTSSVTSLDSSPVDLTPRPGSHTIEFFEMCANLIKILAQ
T15 sequence (Q9P2K8 whole entry): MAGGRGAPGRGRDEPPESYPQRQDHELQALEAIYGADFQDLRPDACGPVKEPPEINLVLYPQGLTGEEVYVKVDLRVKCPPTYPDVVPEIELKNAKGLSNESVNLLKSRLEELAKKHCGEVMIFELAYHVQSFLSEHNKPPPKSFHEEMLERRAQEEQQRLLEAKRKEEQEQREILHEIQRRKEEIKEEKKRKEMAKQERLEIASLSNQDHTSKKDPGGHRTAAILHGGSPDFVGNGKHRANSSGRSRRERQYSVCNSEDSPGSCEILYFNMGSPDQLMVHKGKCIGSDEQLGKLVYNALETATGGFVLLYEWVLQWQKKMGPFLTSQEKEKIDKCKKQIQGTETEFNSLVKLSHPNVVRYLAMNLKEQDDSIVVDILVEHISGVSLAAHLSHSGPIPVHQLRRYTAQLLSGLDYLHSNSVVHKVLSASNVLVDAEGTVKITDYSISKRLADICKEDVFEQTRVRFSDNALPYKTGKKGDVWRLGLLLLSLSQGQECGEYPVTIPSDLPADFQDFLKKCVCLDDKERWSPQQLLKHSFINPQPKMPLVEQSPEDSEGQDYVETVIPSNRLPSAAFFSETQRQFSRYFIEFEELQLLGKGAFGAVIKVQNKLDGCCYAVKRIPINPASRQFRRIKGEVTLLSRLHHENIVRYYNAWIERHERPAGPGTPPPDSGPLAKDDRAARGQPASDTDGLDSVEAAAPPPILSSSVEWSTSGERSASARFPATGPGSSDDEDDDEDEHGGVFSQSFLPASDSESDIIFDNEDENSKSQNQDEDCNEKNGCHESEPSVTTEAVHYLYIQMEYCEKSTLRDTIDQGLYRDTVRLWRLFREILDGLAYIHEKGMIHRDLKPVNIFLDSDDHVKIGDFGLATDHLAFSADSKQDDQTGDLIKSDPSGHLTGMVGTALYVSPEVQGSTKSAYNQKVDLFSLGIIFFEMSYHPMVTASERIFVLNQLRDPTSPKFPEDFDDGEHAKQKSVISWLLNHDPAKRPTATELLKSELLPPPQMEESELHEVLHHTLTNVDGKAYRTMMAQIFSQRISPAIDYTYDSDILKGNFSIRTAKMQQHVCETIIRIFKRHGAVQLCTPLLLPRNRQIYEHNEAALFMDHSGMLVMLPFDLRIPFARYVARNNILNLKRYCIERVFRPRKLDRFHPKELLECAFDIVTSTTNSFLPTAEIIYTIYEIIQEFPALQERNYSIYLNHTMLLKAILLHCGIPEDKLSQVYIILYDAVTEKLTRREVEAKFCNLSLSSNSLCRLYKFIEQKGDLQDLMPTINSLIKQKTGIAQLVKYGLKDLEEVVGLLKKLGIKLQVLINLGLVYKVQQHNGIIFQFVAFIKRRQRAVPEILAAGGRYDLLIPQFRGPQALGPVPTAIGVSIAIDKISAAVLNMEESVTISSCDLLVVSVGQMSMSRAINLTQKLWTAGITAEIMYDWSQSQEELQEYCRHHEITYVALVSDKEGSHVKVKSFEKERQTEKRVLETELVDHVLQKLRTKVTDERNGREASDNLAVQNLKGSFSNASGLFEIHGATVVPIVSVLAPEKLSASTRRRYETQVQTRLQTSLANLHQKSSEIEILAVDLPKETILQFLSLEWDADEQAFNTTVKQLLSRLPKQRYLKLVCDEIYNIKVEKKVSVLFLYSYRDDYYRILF
T12 sequence (Q15120 whole entry): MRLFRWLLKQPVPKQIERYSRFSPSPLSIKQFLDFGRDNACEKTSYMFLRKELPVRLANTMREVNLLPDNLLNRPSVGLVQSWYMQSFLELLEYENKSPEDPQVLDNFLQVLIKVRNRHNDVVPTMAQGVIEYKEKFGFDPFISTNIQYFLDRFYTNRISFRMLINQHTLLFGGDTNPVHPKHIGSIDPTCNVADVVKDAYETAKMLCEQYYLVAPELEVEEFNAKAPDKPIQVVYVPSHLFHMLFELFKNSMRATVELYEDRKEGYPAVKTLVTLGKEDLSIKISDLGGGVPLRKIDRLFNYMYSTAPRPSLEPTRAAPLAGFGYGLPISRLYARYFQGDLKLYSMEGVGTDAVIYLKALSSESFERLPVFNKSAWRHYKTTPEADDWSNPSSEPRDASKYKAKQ
T3 sequence (Q9BQI3 whole entry): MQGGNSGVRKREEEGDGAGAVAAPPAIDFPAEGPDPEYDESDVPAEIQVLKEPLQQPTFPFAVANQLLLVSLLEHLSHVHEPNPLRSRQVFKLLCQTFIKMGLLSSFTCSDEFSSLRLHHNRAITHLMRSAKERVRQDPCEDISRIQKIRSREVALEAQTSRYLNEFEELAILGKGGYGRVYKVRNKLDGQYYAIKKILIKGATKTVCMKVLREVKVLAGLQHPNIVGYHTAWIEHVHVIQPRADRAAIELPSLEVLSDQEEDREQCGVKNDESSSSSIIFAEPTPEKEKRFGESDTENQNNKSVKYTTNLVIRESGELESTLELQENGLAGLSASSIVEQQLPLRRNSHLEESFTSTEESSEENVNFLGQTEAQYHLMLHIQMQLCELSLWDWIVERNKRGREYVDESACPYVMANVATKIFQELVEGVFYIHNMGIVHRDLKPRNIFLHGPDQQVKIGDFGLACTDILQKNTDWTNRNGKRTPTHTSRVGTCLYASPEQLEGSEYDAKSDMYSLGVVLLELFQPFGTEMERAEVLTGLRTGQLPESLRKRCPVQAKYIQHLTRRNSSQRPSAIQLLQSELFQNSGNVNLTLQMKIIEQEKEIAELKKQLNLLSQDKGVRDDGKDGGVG
T4 sequence (P19525 whole entry): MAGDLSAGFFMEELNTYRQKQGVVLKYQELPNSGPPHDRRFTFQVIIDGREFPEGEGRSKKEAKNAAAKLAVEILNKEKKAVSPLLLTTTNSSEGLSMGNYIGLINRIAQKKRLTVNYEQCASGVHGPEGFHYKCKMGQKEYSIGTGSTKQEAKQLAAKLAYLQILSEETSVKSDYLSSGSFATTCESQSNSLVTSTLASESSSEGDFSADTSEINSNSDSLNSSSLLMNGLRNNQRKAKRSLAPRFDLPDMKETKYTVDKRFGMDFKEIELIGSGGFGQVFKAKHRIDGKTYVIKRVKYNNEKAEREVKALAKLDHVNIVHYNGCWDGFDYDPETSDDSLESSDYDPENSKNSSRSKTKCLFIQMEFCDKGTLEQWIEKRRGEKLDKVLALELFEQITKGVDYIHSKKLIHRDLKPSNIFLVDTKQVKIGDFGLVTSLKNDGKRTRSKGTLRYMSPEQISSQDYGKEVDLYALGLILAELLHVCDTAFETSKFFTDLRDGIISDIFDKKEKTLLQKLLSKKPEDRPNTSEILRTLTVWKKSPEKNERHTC

In the case of `CO[C@@H]1[C@H](N(C)C(=O)CCC(=O)NCc2cn(CCCS(=O)(=O)[O-])nn2)C[C@H]2O[C@]1(C)n1c3ccccc3c3c4c(c5c6ccccc6n2c5c31)C(=O)NC4.[Na+]` [CIMSS], the “fold less effective than staurosporine (IC50), Akt1” value (AKT1) is reported as ~230 fold, the IC50 (AKT1; in vitro kinase activity, read-out: Compound IC50, AKT1) is reported as 461 nM and the inhibition at 10 µM (AKT1; read-out: inhibition of Akt1) is reported as > 75%. The IC50 (AKT3; in vitro kinase activity, read-out: Compound IC50, AKT3) was 157 nM, the inhibition at 10 µM (AKT3; read-out: inhibition of Akt3) was > 75% and the “viral plaque formation, synchronized infection” value (HSV-2(G)) was “significant reduction”. For the same compound, the remaining activity at 10 µM (panel of 393 kinases [1]; read-out: % Enzyme Activity (relative to DMSO controls) CIMSS (10 μM) Data 1, kinase EIF2AK1, Data 1) was 82.5%, the remaining activity at 10 µM (panel of 393 kinases [1]; read-out: % Enzyme Activity (relative to DMSO controls) CIMSS (10 μM) Data 2, kinase EIF2AK1, Data 2) was 81.2% and the remaining activity at 10 µM (panel of 393 kinases [2]; read-out: % Enzyme Activity (relative to DMSO controls) CIMSS (10 μM) Data 1, kinase EIF2AK2, Data 1) was 9.89%. The remaining activity at 10 µM (panel of 393 kinases [2]; read-out: % Enzyme Activity (relative to DMSO controls) CIMSS (10 μM) Data 2, kinase EIF2AK2, Data 2) was 9.34%, the remaining activity at 10 µM (panel of 393 kinases [3]; read-out: % Enzyme Activity (relative to DMSO controls) CIMSS (10 μM) Data 1, kinase EEF2K, Data 1) was 99.5% and the remaining activity at 10 µM (panel of 393 kinases [3]; read-out: % Enzyme Activity (relative to DMSO controls) CIMSS (10 μM) Data 2, kinase EEF2K, Data 2) was 97%. The remaining activity at 10 µM (panel of 393 kinases [4]; read-out: % Enzyme Activity (relative to DMSO controls) CIMSS (10 μM) Data 1, kinase AMPK(A1/B1/G1), Data 1) was 1.14%, the remaining activity at 10 µM (panel of 393 kinases [4]; read-out: % Enzyme Activity (relative to DMSO controls) CIMSS (10 μM) Data 1, kinase AMPK(A1/B1/G2), Data 1) was 1.46% and the remaining activity at 10 µM (panel of 393 kinases [4]; read-out: % Enzyme Activity (relative to DMSO controls) CIMSS (10 μM) Data 1, kinase AMPK(A1/B1/G3), Data 1) was 0.22%. For the same compound, the remaining activity at 10 µM (panel of 393 kinases [4]; read-out: % Enzyme Activity (relative to DMSO controls) CIMSS (10 μM) Data 1, kinase AMPK(A1/B2/G1), Data 1) was 0.73%, the remaining activity at 10 µM (panel of 393 kinases [4]; read-out: % Enzyme Activity (relative to DMSO controls) CIMSS (10 μM) Data 2, kinase AMPK(A1/B1/G1), Data 2) was 1.14% and the remaining activity at 10 µM (panel of 393 kinases [4]; read-out: % Enzyme Activity (relative to DMSO controls) CIMSS (10 μM) Data 2, kinase AMPK(A1/B1/G2), Data 2) was 1.23%. The remaining activity at 10 µM (panel of 393 kinases [4]; read-out: % Enzyme Activity (relative to DMSO controls) CIMSS (10 μM) Data 2, kinase AMPK(A1/B1/G3), Data 2) was 0.07%, the remaining activity at 10 µM (panel of 393 kinases [4]; read-out: % Enzyme Activity (relative to DMSO controls) CIMSS (10 μM) Data 2, kinase AMPK(A1/B2/G1), Data 2) was 0.57% and the remaining activity at 10 µM (panel of 393 kinases [5]; read-out: % Enzyme Activity (relative to DMSO controls) CIMSS (10 μM) Data 1, kinase PDK2/PDHK2, Data 1) was 95.5%. For the same compound, the remaining activity at 10 µM (panel of 393 kinases [5]; read-out: % Enzyme Activity (relative to DMSO controls) CIMSS (10 μM) Data 2, kinase PDK2/PDHK2, Data 2) was 94%, the remaining activity at 10 µM (panel of 393 kinases [6]; read-out: % Enzyme Activity (relative to DMSO controls) CIMSS (10 μM) Data 1, kinase mTOR/FRAP1, Data 1) was 112% and the remaining activity at 10 µM (panel of 393 kinases [6]; read-out: % Enzyme Activity (relative to DMSO controls) CIMSS (10 μM) Data 2, kinase mTOR/FRAP1, Data 2) was 108%. For the same compound, the remaining activity at 10 µM (panel of 393 kinases [7]; read-out: % Enzyme Activity (relative to DMSO controls) CIMSS (10 μM) Data 1, kinase DNA-PK, Data 1) was 98.2%, the remaining activity at 10 µM (panel of 393 kinases [7]; read-out: % Enzyme Activity (relative to DMSO controls) CIMSS (10 μM) Data 2, kinase DNA-PK, Data 2) was 95.8% and the remaining activity at 10 µM (panel of 393 kinases [8]; read-out: % Enzyme Activity (relative to DMSO controls) CIMSS (10 μM) Data 1, kinase TRPM7/CHAK1, Data 1) was 91.6%. The remaining activity at 10 µM (panel of 393 kinases [8]; read-out: % Enzyme Activity (relative to DMSO controls) CIMSS (10 μM) Data 2, kinase TRPM7/CHAK1, Data 2) was 91.5%, the remaining activity at 10 µM (panel of 393 kinases [9]; read-out: % Enzyme Activity (relative to DMSO controls) CIMSS (10 μM) Data 1, kinase AMPK (A2/B1/G3), Data 1) was 0.67% and the remaining activity at 10 µM (panel of 393 kinases [9]; read-out: % Enzyme Activity (relative to DMSO controls) CIMSS (10 μM) Data 1, kinase AMPK(A2/B1/G1), Data 1) was 0.76%. It also gave a remaining activity at 10 µM (panel of 393 kinases [9]; read-out: % Enzyme Activity (relative to DMSO controls) CIMSS (10 μM) Data 1, kinase AMPK(A2/B2/G1), Data 1) of 0.34%, a remaining activity at 10 µM (panel of 393 kinases [9]; read-out: % Enzyme Activity (relative to DMSO controls) CIMSS (10 μM) Data 1, kinase AMPK(A2/B2/G2), Data 1) of 0.73% and a remaining activity at 10 µM (panel of 393 kinases [9]; read-out: % Enzyme Activity (relative to DMSO controls) CIMSS (10 μM) Data 1, kinase AMPK(A2/B2/G3), Data 1) of 0.63%. For the same compound, the remaining activity at 10 µM (panel of 393 kinases [9]; read-out: % Enzyme Activity (relative to DMSO controls) CIMSS (10 μM) Data 2, kinase AMPK (A2/B1/G3), Data 2) was 0.59%, the remaining activity at 10 µM (panel of 393 kinases [9]; read-out: % Enzyme Activity (relative to DMSO controls) CIMSS (10 μM) Data 2, kinase AMPK(A2/B1/G1), Data 2) was 0.64% and the remaining activity at 10 µM (panel of 393 kinases [9]; read-out: % Enzyme Activity (relative to DMSO controls) CIMSS (10 μM) Data 2, kinase AMPK(A2/B2/G1), Data 2) was 0.23%. It also gave a remaining activity at 10 µM (panel of 393 kinases [9]; read-out: % Enzyme Activity (relative to DMSO controls) CIMSS (10 μM) Data 2, kinase AMPK(A2/B2/G2), Data 2) of 0.63%, a remaining activity at 10 µM (panel of 393 kinases [9]; read-out: % Enzyme Activity (relative to DMSO controls) CIMSS (10 μM) Data 2, kinase AMPK(A2/B2/G3), Data 2) of 0.61% and a remaining activity at 10 µM (panel of 393 kinases [10]; read-out: % Enzyme Activity (relative to DMSO controls) CIMSS (10 μM) Data 1, kinase PDK3/PDHK3, Data 1) of 96.4%. It also gave a remaining activity at 10 µM (panel of 393 kinases [10]; read-out: % Enzyme Activity (relative to DMSO controls) CIMSS (10 μM) Data 2, kinase PDK3/PDHK3, Data 2) of 94.8%, a remaining activity at 10 µM (panel of 393 kinases [11]; read-out: % Enzyme Activity (relative to DMSO controls) CIMSS (10 μM) Data 1, kinase EIF2AK3, Data 1) of 61.6% and a remaining activity at 10 µM (panel of 393 kinases [11]; read-out: % Enzyme Activity (relative to DMSO controls) CIMSS (10 μM) Data 2, kinase EIF2AK3, Data 2) of 60.2%. It also gave a remaining activity at 10 µM (panel of 393 kinases [12]; read-out: % Enzyme Activity (relative to DMSO controls) CIMSS (10 μM) Data 1, kinase PDK4/PDHK4, Data 1) of 93.2%, a remaining activity at 10 µM (panel of 393 kinases [12]; read-out: % Enzyme Activity (relative to DMSO controls) CIMSS (10 μM) Data 2, kinase PDK4/PDHK4, Data 2) of 93% and a remaining activity at 10 µM (panel of 393 kinases [13]; read-out: % Enzyme Activity (relative to DMSO controls) CIMSS (10 μM) Data 1, kinase EIF2AK4, Data 1) of 9.5%. It also gave a remaining activity at 10 µM (panel of 393 kinases [13]; read-out: % Enzyme Activity (relative to DMSO controls) CIMSS (10 μM) Data 2, kinase EIF2AK4, Data 2) of 9.39%, a remaining activity at 10 µM (panel of 393 kinases [14]; read-out: % Enzyme Activity (relative to DMSO controls) CIMSS (10 μM) Data 1, kinase PDK1/PDHK1, Data 1) of 97.2% and a remaining activity at 10 µM (panel of 393 kinases [14]; read-out: % Enzyme Activity (relative to DMSO controls) CIMSS (10 μM) Data 2, kinase PDK1/PDHK1, Data 2) of 96.8%. The “VSV-EBOV-GP infection, percentage of GFP+ cells” value (VSV-EBOV-GP) was “no effect”.
